As a reminder, the IC50 is the midpoint of a concentration-inhibition curve.

Several values for one entry are separate records, joined by “and”; a condition that tells them apart may be missing. Identical values can stand only once. Like-named read-outs stand apart in the source and are kept apart here.

The subject of one experiment is MRC-5 normal lung cells. Description: MTT cell viability assay, MRC-5 normal lung cells. The experiment is classed as cell-based, human. The following applies: read-out: IC50 (Mean ± SEM; μM) MRC-5 (Normal). How it is done:
(§1) Benzofurane scaffold, piperazine ring, and urea function are relevant privileged structures present not only in anticancer drugs against breast cancer but also against other types of cancer, such as lung cancer, hepatocarcinoma, and gastric cancer. […] MRC-5 normal lung cells and A549 lung cancer cells were exposed to compounds 31, 32, 35, 37, and cisplatin (a common drug used to treat lung cancer) for 72 h, and cell viability was measured using the MTT assay (Figure 10 and Table 3). Compounds 35 and 37 also had high selectivity for A549 cancer cells.
(§2) Exponentially growing cells were seeded into 96-well plates, and drugs were added 24 h later. Each compound was dissolved with DMSO (Panreac Applichem) to prepare a stock solution (100 mM). The working solutions of specific concentrations were prepared via the dilution of the stock solutions in the culture medium and were immediately used to treat the cells. The remaining stock solutions were aliquoted and frozen at −40 °C. We used different aliquots in each independent experiment to avoid the freeze–thaw cycles. Cells were exposed to the drugs for 72 h. After these 72 h, cell viability was determined with the MTT assay or the resazurin assay. These assays are colorimetric techniques that are widely used to determine cell viability.
(§3) The MTT assay is based on the capability of viable cells to transform the MTT salt into a purple formazan dye. After an incubation period of the cells with the MTT and a solubilization step, the quantity of the colored product is measured with a plate reading spectrophotometer. […] The quantity of formazan produced is presumably proportional to the number of viable cells. After seeding for 24 h, cells were treated with the tested drugs for 72 h. Then, medium was removed, and 125 μL of MTT (1 mg/mL in medium) was added to each well for 3–4 h. Subsequently, 80 μL of 20% sodium dodecyl sulfate (Panreac Applichem) in 20 mM hydrochloric acid (Panreac Applichem) was added to dissolve the insoluble purple formazan product, plates were incubated for 10 h at 37 °C, and optical densities were measured at 540 nm on a multiwell plate spectrophotometer reader.
(§4) In both assays, cell viability was expressed as percentage in relation to controls. All data were averaged from at least two independent experiments and were expressed as mean ± standard error of the mean (SEM). Selectivity indices (SI) were calculated by dividing the IC50 values in the nonmalignant cells by those in the cancer cells.

For a further experiment, the system named is A549 cells. Description: Resazurin cell viability assay, A549 cancer cells. The following applies: for IC50: Homo sapiens. The class given is cell-based, human.
Description: (§5) One key limitation of most anticancer drugs is that they not only target cancer cells but also affect nonmalignant cells with high division rates. This can induce numerous adverse effects, such as severe nausea and vomiting, hair loss, diarrhea, mouth sores, anemia, erythematous eruptions, etc. For example, skin cells, which are constantly renewing themselves, are often damaged by antimetabolites or alkylating agents. This can lead to painful erythematous eruptions. […] These cells are derived from normal adult tissue and have a division rate similar to that of cancer cells. A549 cells and HaCaT cells were exposed to various concentrations of 31, 32, 35, 37, or gemcitabine (a common antimetabolite used to treat cancer) for 72 h. Cell viability was determined with the resazurin assay. Subsequently, the cells were allowed to grow in a drug-free medium for another 72 h. This was performed to test their survival and proliferation ability after the removal of the compounds. Cell viability was again measured with the resazurin assay. […] It should be mentioned that cells exposed to high concentrations of compounds above 100 μM were unable to recover after treatment.
as §2
(§6) The resazurin assay measures the ability of viable cells to transform the blue compound resazurin into the pink compound resorufin. There is a direct correlation between the reduction in resazurin and the number of viable cells. After seeding for 24 h, cells were exposed to several concentrations of compounds. After a 72 h treatment period, the cells were washed once with a phosphate-buffered saline (PBS, biowest), and 150 μL of resazurin (20 μg/mL in the medium) was added to each well. The plates were then incubated for 4–5 h at 37 °C, 5% CO2, and optical densities were measured at 540 nm and 620 nm using a multiwell plate spectrophotometer reader (Imark Bio Rad Laboratories Inc., Hercules, CA, USA). Subsequently, cells were washed once with PBS and allowed to grow for an additional 72 h in drug-free medium to allow them to recuperate from possible damage induced by the tested compounds. After the treatment period, cell viability was measured following the same protocol described above.
as §4
On the technique in general: Alamar Blue is a resazurin reagent that responds to reducing activity.

A further experiment has as its system HaCaT cells. Description: Resazurin cell viability assay, HaCaT nonmalignant cells. The class given is cell-based. The following applies: Homo sapiens; for IC50: 72 h; for CC50: 144 h.
Description: as §5, §2, §6, §4

The test system of experiment [1] is MCF7 human breast cancer cells. Description: MTT cell viability assay, MCF7 breast cancer cells. The class given is cell-based. The following applies: for IC50: 72 h exposure, MTT assay, read-out: IC50 (Mean ± SEM; μM) MCF7 (Cancer); for Selectivity Index: IC50 MCF 10A divided by IC50 MCF7, 72 h, MTT. As for the experimental part:
(§7) To evaluate the cytotoxicity of our compounds against cancer cells, they were evaluated in vitro against MCF7 human breast cancer cells. To examine the selectivity of our compounds, they were also studied against MCF 10A human normal cells. Both cell lines were exposed to different concentrations of our compounds for 72 h before measuring cell viability with the 3-(4,5-dimethylthiazol-2-yl)-2,5-diphenyltetrazolium bromide (MTT) assay (for conditions of the MTT assay, see the Experimental Part, Section 3). Docetaxel, an anticancer drug used in clinics, was tested under the same experimental conditions. Data were obtained from at least two independent experiments and were expressed as means ± standard error of means (SEM). The half-maximal inhibitory concentration (IC50) value of each compound was calculated, and the results are collected in Table 2. To evaluate the selective activity of our compounds, the selectivity index (SI) was also calculated. The curves of cell viability of MCF7 cancer cells and MCF 10A normal cells after the treatment with our compounds are shown (Figure 5, Figure 6, Figure 7, Figure 8 and Figure 9 and Figures S1–S4).
as §2, §3, §4

For experiment [2], the system named is MCF 10A human normal breast cells. Nature of the experiment: MTT cell viability assay, MCF 10A normal breast cells. The class given is cell-based. The following applies: 72 h exposure, read-out: IC50 (Mean ± SEM; μM) MCF 10A (Normal). As for the experimental part:
as §7, §2, §3, §4

In the next experiment the test system is A549 lung cancer cells. Description: MTT cell viability assay, A549 lung cancer cells. The following applies: for IC50: 72 h exposure, MTT assay, read-out: IC50 (Mean ± SEM; μM) A549 (Cancer); for Selectivity Index: IC50 MRC-5 divided by IC50 A549, 72 h, MTT. The class given is cell-based, human. How it is done: as §1, §2, §3, §4
On the technique in general: Tetrazolium dyes change colour on reduction, which living cells bring about.

Where [3] appears, read: Homo sapiens, MRC5, 72 h exposure.
Where [4] appears, read: A549, 72 h, 72 h Treatment, resazurin assay, read-out: IC50 (Mean ± SEM; μM) A549 (Cancer).
[5] abbreviates: A549, 144 h, 72 h Treatment + 72 h Recovery Period, resazurin assay, read-out: IC50 (Mean ± SEM; μM) A549 (Cancer).
Setting [6] is: IC50 HaCaT divided by IC50 A549, 72 h Treatment, resazurin.
[7] abbreviates: 72 h Treatment, resazurin assay, read-out: IC50 (Mean ± SEM; μM) HaCaT (Nonmalignant).
Where [8] appears, read: 72 h Treatment + 72 h Recovery Period, resazurin assay, read-out: IC50 (Mean ± SEM; μM) HaCaT (Nonmalignant).
The mark [9] stands for this setting: IC50 HaCaT divided by IC50 A549, 72 h Treatment + 72 h Recovery Period, resazurin.

`CC(C)(C)OC(=O)N1CCN(C(=O)Nc2cc(C(F)(F)F)ccc2Cl)C(c2ccccc2)C1` (stereo not drawn) [Compound 31]: the IC50 in the experiment on MRC-5 normal lung cells (setting [3]) was 14.2 ± 0.5 µM; in the experiment on A549 cells (setting [4]), 17 ± 1.6 µM; in the experiment on A549 cells (setting [5]), 17.8 ± 2 µM; with HaCaT cells (setting [7]), 14.5 ± 3.2 µM; in experiment [1], 18.6 ± 4.2 µM; in experiment [1] (Homo sapiens, MCF7, 72 h), < 20 µM. Moreover, the IC50 was 298 ± 56.4 µM in experiment [2] and 4.8 ± 0.8 µM in the experiment with A549 lung cancer cells (Homo sapiens, A549). Further, the “Selectivity Index” value is 0.8 ± 0.2 with A549 cells (setting [6]); > 10 and 16.6 ± 1.9 in experiment [1]; 2.1 ± 0.3 with A549 lung cancer cells. Moreover, the CC50 in the experiment on HaCaT cells (setting [8]) was determined as 30.9 ± 7.5 µM.

As to `CC(C)(C)OC(=O)N1CCN(C(=O)Nc2ccc(Cl)c(C(F)(F)F)c2)C(c2ccccc2)C1` (stereo not drawn) [Compound 32], the IC50 stood at 4.3 ± 0.2 µM in the experiment on MRC-5 normal lung cells (setting [3]); 6.2 ± 0.6 µM in the experiment with A549 cells (setting [4]); 13.6 ± 0.1 µM with A549 cells (setting [5]); 6.7 ± 0.8 µM in the experiment on HaCaT cells (setting [7]); 34.1 ± 2.2 µM in experiment [2]; 5.2 ± 0.4 µM with A549 lung cancer cells (Homo sapiens, A549). Also, the “Selectivity Index” value is recorded as 1.1 ± 0.1 with A549 cells (setting [9]), 1.1 ± 0.1 with A549 cells (setting [6]), 12.6 ± 2.6 in experiment [1] and 1.0 ± 0.1 with A549 lung cancer cells. Further, the CC50 with HaCaT cells (setting [8]) is 14.9 ± 1.3 µM.

As for `N.N.[Cl][Pt][Cl]` [Cisplatin, reference compound], in the experiment with MRC-5 normal lung cells (72 h exposure), the IC50 was 31.8 ± 5.6 µM. Besides, in the experiment on A549 lung cancer cells, the IC50 worked out at 8.2 ± 2.2 µM and the “Selectivity Index” value was determined as 6.3 ± 1.8.

Take `O=C(c1cc2ccccc2o1)N1CCN(C(=O)Nc2ccc([N+](=O)[O-])cc2)C(c2ccccc2)C1` (stereo not drawn) [Compound 35]: the IC50 with MRC-5 normal lung cells (setting [3]) stood at 165 ± 4.1 µM; in the experiment with A549 cells (setting [4]), 28.4 ± 7.3 µM; in the experiment on A549 cells (setting [5]), 69.3 ± 20.2 µM; in the experiment with HaCaT cells (setting [7]), 41.6 ± 8.1 µM; in experiment [1] (Homo sapiens, MCF7, 72 h), 23 ± 3.8 µM; in experiment [2] it was 244 ± 24.9 µM. For the same compound, the IC50 in the experiment on A549 lung cancer cells (Homo sapiens, A549) worked out at 25.6 ± 2.9 µM. For the same compound, the “Selectivity Index” value with A549 cells (setting [6]) turned out to be 1.6 ± 0.2; in experiment [1] it was 11.1 ± 2.9; in the experiment on A549 lung cancer cells, 6.5 ± 2.1. For the same compound, in the experiment on HaCaT cells (setting [8]), the CC50 was 97.5 ± 16.2 µM.

Take `N#Cc1ccc(NC(=O)N2CCN(C(=O)c3cc4ccccc4o3)CC2c2ccccc2)cc1` (stereo not drawn) [Compound 37]: the IC50 in the experiment with MRC-5 normal lung cells (setting [3]) was determined as 236 ± 5.4 µM; in the experiment on A549 cells (setting [4]), 22.5 ± 2.7 µM; with A549 cells (setting [5]), 41.6 ± 8.9 µM; with HaCaT cells (setting [7]) it was 24.8 ± 1.8 µM; in experiment [1] (Homo sapiens, MCF7, 72 h) it was 57.1 ± 34.7 µM; in experiment [2] it was 484 ± 233 µM. In addition, in the experiment on A549 lung cancer cells (Homo sapiens, A549), the IC50 was determined as 18.7 ± 2.7 µM. Also, the “Selectivity Index” value is on record as 1.1 ± 0.1 in the experiment on A549 cells (setting [6]), > 10 in experiment [1] and 12.8 ± 1.6 in the experiment on A549 lung cancer cells. For the same compound, the CC50 with HaCaT cells (setting [8]) amounted to 64.6 ± 6.8 µM.

`Nc1ccn([C@@H]2O[C@H](CO)[C@@H](O)C2(F)F)c(=O)n1` [Gemcitabine, reference compound]: the IC50 in the experiment with A549 cells (A549, 72 h, gemcitabine line in nM, 72 h Treatment + 72 h Recovery Period, resazurin, read-out: IC50 (Mean ± SEM) A549 (Cancer)) was found to be 0.0093 ± 0.007 µM; in the experiment with A549 cells (A549, 72 h, gemcitabine line in nM, 72 h Treatment, resazurin, read-out: IC50 (Mean ± SEM) A549 (Cancer)), 0.0035 ± 0.0008 µM; in the experiment on HaCaT cells (gemcitabine line in nM, 72 h Treatment + 72 h Recovery Period, resazurin, read-out: IC50 (Mean ± SEM) HaCaT (Nonmalignant)), 0.0088 ± 0.0065 µM; in the experiment on HaCaT cells (gemcitabine line in nM, 72 h Treatment, resazurin, read-out: IC50 (Mean ± SEM) HaCaT (Nonmalignant)) it was 0.0131 ± 0.0062 µM. Besides, the “Selectivity Index” value in the experiment on A549 cells (setting [9]) is 1.0 ± 0.1; in the experiment with A549 cells (setting [6]), 3.3 ± 1.4.

The record behind these values is article PMC10706865, “Repurposing Study of 4-Acyl-1-phenylaminocarbonyl-2-substituted-piperazine Derivatives as Potential Anticancer Agents—In Vitro Evaluation against Breast Cancer Cells” (International Journal of Molecular Sciences, 2023).
